The results in this text go back to patent US11524962B2, “Substituted pyrrolo[2,3-d]pyrimidines as inhibitors of protein arginine methyl transferase 5 (PRMT5)” (PRELUDE THERAPEUTICS, INCORPORATED, priority 2017, dated 2022).

Molecules are shown by their SMILES.

The subject of experiment [1] is Symmetric Di-Methyl Arginine (sDMA) marks in U-87 MG cells. The experiment can be described thus: sDMA Western blot / In Cell Western in U-87 MG cells. It counts as cell-based. As to conditions: Homo sapiens, 72 h, 3 days, read-out: sDMA_U87 IC50. As to the method:
(§1) Compound titration and cell culture: Compounds were dissolved in DMSO to make 10 mM stock and 3-fold series dilutions were further conducted to make working stocks top at 1 mM. Granta-519 cells were maintained in PRMI 1640 (Corning Cellgro, Catalog #: 10-040-CV) supplemented with 10% v/v FBS (GE Healthcare, Catalog #: SH30910.03) and U-87 MG cells were maintained in DMEM (Corning Cellgro, Catalog #: 10-013-CV) with 10% FBS and 2 mM Glutamin (Corning Cellgro, Catalog #25005CV).
(§2) To determine enzyme inhibition IC50 values in Granta-519 and U-87 MG cells using Western Blot analysis. One day before experiment, Granta-519 cells were passaged to a density of 0.5×10^6 cells/ml. U-87 MG cells were trypsinized and 4×10^5 cells were seeded into 6-well plates and allow to grow overnight. The next day, Granta-519 cells were spun down at 1,500 rpm for 4 min, resuspend in fresh medium at 0.5×10^6 cells/ml and 3 mL of culture (1.5×10^6 cells) were seeded into 6 well plate. Eight-point, 3-fold serial dilutions of compound working stocks were added to cells (3 ul, 1:1,000 dilution, DMSO concentration was 0.1%; final top concentration at 1 uM) and incubated for 3 days. Cells incubated with DMSO was used as a vehicle control.
(§3) Cells were harvested 3 days later, resuspended in 15 uL PBS, lysed in 4% SDS, and homogenized by passing through homogenizer column (Omega Biotek, Catalog #: HCR003). Total protein concentrations were determined by BCA assay (ThermoFisher Scientific, Catalog #: 23225). Lysates were mixed with 5× Laemmli buffer and boiled for 5 min. Forty ug of total protein was separated on SDS-PAGE gels (Bio-Rad, catalog #: 4568083, 4568043), transferred to PVDF membrane, blocked with 5% dry milk (Bio-Rad, Catalog #: 1706404) in TBS with 0.1% v/v Tween 20 (TBST) for 1 hour at room temperature (RT), and incubated with primary antibodies (sDMA: Cell signaling, Catalog #: 13222, 1:3,000; β-Actin: sigma, Catalog #: 1:5,000) in 5% dry milk in TBST at 4° C. overnight. The next day, membranes were washed with TBST, 5×5 min, and incubated with HRP conjugated seconded antibody (GE Healthcare; Catalog #: NA934-1ML, NA931-1ML; 1:5,000) for 2 hours at RT, followed by 5×5 min washes with TBST, and incubation with ECL substrates (Bio-Rad, Catalog #: 1705061, 1705062). Chemiluminescent signal was captured with Fluochem HD2 imager (Proteinsimple). SmD3me2s bands were quantified by ImageJ. Signals were normalized to β-Actin and DMSO control. IC50 values were calculated using Graphpad Prism ([Inhibitor]vs. normalized response−Variable slope).
U87-MG cells were trypsinized one day before the experiment, seeded into a 384-well plate at 2500 cells/well using a Multidrop Combi Dispenser (ThermoFisher) and allowed to grow overnight. The next day (day 0), a series of 9-point, 3-fold serial dilutions of compounds were prepared and dispensed into wells from a 1 mM stock solution using a TECAN digital dispenser (D300e) and the DMSO % concentration was normalized to 0.1%. Three days later, media was removed, and cells were processed as described above.
To determine IC50 values, the ratio for each well was calculated (sDMA 800 nm value/DRAQ5 700 nm value). Each plate included 28 negative control wells (DMSO only, minimum inhibition) and 18 positive control wells for maximum inhibition (treated with 3 uM of a reference compounds, background wells). The average ratios of minimum and maximum inhibition controls were calculated and used to determine the percentage of sDMA, relative to DMSO, for each well in the plate.
These procedures generated the sDMA data in Table 7.
A general note: Immunoblotting shows a protein as a band on a membrane.

The test system of experiment [2] is U-87 MG cells. The experiment can be described thus: Cell proliferation assay in U-87 MG cells. Type of experiment: cell-based. As to conditions: Homo sapiens, 240 h, day 10, read-out: Prolif_U87 IC50. As to the method:
One day before experiment, Granta-519 cells were passaged to a density of 0.5×10^6 cells/ml. U-87 MG cells were trypsinized and 2,000 cells were seeded into 96-well plates and allow to grow overnight. On the day of experiment (day 0), Granta-519 Cells were spun down at 1,500 rpm for 4 min, resuspended in fresh medium to 0.5×10^6 cells/ml and 190 ul of cells were added to 96 well plates. For U-87 MG cells, old medium was removed and replaced with 190 uL fresh medium. Compound working stocks were first diluted at 1:50 with fresh medium in 96 well plate and 10 μL of diluted drugs were added to 96 well plates containing cells and incubated for 3 days. DMSO was used a vehicle control.
One day 3, 50 uL of Granta-519 cells were transferred to a new 96-well plate and 140 uL fresh medium was added. For U-87 MG cells, old medium was removed and replaced with 190 uL fresh medium. Compound working stocks were freshly diluted at 1:50 with medium and 10 μL of diluted drugs were added to cells and grow for 3 additional days. The same process was repeated on day 6. Cells were allowed to grow for additional 4 days.
On day 10, 100 uL Granta-519 cells were transferred to a new 96 well plate and 10 μL of Cell Counting Kit-8 (CCK-8, Jojindo, CK04-13) solution was added. For U-87 MG cells, old medium was removed and replaced with 100 uL fresh medium and 10 uL CCK-8 solution was added. Plates were incubated in CO2 incubator for 2 hours (Granta-519 cells) or 30 min (U-87 MG cells) and OD450 values were measured with a microplate reader (iMark microplate reader, Bio-Rad). Percentage of viable cells, relative to DMSO vehicle control, were calculated and plotted in Graphpad Prism ([Inhibitor]vs. normalized response−Variable slope) to determine proliferation IC50 values on day 10.
These cell proliferation procedures produced the data in Table 7.

The target in experiment [3] is T1, PRMT5/MEP50 complex (Homo sapiens (Human), UniProt O14744). Description: Flash plate assay. It counts as biochemical. As to conditions: read-out: Flash Plate IC50. Here is the method: Flash plate assay. Compounds were solubilized, and 3-fold diluted in 100% DMSO. […] Standard reactions were performed in a total volume of 30 μl in assay buffer, with 300 nM histone H4 based AcH4-23 (Anaspec: AS-65002) as substrate. To this was added the PRMT5/MEP50 complex diluted to provide a final assay concentration of 2.5 nM and the compounds were allowed to preincubate for 20 minutes at 37° C. The reaction was initiated by adding S-[3H-methyl]-adenosyl-L-methionine (PerkinElmer: NET155001MC) to final concentration of 1 μM. Following a 30 minutes incubation at 37° C., the reaction was stopped by adding 25 μL of 8M Guanidine HCl. Prepare streptavidin YSI SPA beads (Perkinelmer: RPNQ0012) at 0.3 mg/mL in assay buffer. To each reaction, add 150 μL of SPA beads suspension, and incubated while shaking at room temperature for 30 minutes. The plate was centrifuged at 100×g for 30 second before reading in a scintillation counter. IC50 values were determined by fitting the data to the standard 4 parameters with Hill Slope using GraphPad Prism software. This procedure produced the Flash Plate data in Table 7.
T1 sequence (O14744 whole entry): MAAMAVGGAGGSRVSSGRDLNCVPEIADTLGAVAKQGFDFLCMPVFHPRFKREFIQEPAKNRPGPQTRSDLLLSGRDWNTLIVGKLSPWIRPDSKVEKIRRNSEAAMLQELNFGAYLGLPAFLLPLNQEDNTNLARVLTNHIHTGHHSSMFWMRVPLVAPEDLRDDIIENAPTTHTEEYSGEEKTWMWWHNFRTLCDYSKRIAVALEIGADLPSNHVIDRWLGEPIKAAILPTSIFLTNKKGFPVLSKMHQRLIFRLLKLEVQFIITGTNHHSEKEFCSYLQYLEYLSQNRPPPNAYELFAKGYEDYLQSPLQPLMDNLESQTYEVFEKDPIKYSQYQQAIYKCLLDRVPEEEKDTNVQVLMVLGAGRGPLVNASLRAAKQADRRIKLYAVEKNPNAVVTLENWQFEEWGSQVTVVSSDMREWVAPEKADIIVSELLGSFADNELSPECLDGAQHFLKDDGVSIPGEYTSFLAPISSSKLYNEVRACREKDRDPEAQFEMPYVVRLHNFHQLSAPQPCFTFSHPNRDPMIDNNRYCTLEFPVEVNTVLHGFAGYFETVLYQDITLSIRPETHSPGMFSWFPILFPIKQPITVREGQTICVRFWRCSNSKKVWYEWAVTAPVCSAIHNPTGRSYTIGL
T1 sequence (Q9BQA1 whole entry partner): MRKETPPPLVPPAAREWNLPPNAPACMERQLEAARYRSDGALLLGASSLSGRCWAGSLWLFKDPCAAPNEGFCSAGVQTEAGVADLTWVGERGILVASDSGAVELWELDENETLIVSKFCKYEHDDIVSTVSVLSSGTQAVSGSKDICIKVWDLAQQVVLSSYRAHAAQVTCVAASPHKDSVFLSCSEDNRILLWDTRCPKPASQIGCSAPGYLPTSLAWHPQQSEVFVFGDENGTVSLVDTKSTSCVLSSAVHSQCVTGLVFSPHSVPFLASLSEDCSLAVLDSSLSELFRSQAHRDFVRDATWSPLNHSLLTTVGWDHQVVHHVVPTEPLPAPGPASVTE

The target in experiment [4] is T1, PRMT5/MEP50 complex. Description: HotSpot Assay. It counts as biochemical. As to the method: HotSpot Assay. Compounds were solubilized and 3-fold diluted in 100% DMSO. […] Standard reactions were performed in a total volume of 50 μl in assay buffer, with histone H2A (5 μM final) as substrate. To this was added the PRMT5/MEP50 complex diluted to provide a final assay concentration of 5 nM and the compounds were allowed to preincubate for 15 to 20 minutes at room temperature. The reaction was initiated by adding S-[3H-methyl]-adenosyl-L-methionine (PerkinElmer) to final concentration of 1 μM. Following a 60 minutes incubation at 30° C., the reaction was stopped by adding 100 μL of 20% TCA. Each reaction was spotted onto filter plate (MultiScreen FB Filter Plate, Millipore), and washed 5 times with PBS buffer, Scintillation fluid was added to the filter plate and read in a scintillation counter. IC50 values were determined by fitting the data to the standard 4 parameters with Hill Slope using GraphPad Prism software. This procedure generated the HotSpot data in Table 7.

For experiment [5], the system named is Symmetric Di-Methyl Arginine (sDMA) marks in Granta-519 cells. Description: sDMA Western blot / In Cell Western in Granta-519 cells. Type of experiment: cell-based. As to conditions: Homo sapiens, 72 h; Granta-519, 3 days; read-out: sDMA_Granta IC50. Here is the method:
as §1, §2, §3
sDMA In Cell Western procedure (ICW): Granta-519 cells were passaged to a density of 0.5×10^6 cells/ml one day before experiments and allowed to grow overnight. The next day (day 0), cells were spun down at 1,500 rpm for 4 min, resuspended in fresh medium to 0.2×10^6 cells/ml and 100 uL of cells were added to 384-well plates using a Multidrop Combi Dispenser (ThermoFisher). A series of 9-point, 3-fold serial dilutions of compounds were prepared and dispensed into wells from a 1 mM stock solution using a TECAN digital dispenser (D300e) and the DMSO % concentration was normalized in each well to 0.1%. DMSO and 3 uM of reference compounds were used as negative (minimum inhibition) and positive (maximum inhibition) controls, respectively. After 3 days of incubation, cells were first resuspended and then 80 ul of cells were transferred to a Poly-D-lysine 384-well plate (Corning, Catalog #354663), followed by 30 minutes incubation at room temperature (RT) and 5 additional hours of incubation at 37° C. […]

A word on the IC50: it is the concentration at which inhibition is half-maximal. For `Cc1ncnc2c1ccn2[C@@H]1O[C@H]([C@](C)(O)c2ccc3c(c2)CC3)[C@@H](O)[C@H]1O` [Example 9, (2S,3S,4R,5R)-2-((R)-1-(bicyclo[4.2.0]octa-1(6),2,4-trien-3-yl)-1-hydroxyethyl)-5-(4-methyl-7H-pyrrolo[2,3-d]pyrimidin-7-yl)tetrahydrofuran-3,4-diol], the IC50 in experiment [1] is 110 nM; in experiment [2] it was 388 nM; in experiment [3] it was 24.3 nM; in experiment [4], 5 nM.
On to `Nc1ncnc2c1ccn2[C@@H]1O[C@H]([C@H](O)c2ccc3c(c2)OCC3)[C@@H](O)[C@H]1O` [Example 14, (2R,3R,4S,5R)-2-(4-amino-7H-pyrrolo[2,3-d]pyrimidin-7-yl)-5-((R)-(2,3-dihydrobenzofuran-6-yl)(hydroxy)methyl)tetrahydrofuran-3,4-diol], for which the IC50 in experiment [3] is 4.4 nM; in experiment [5], 203 nM; in experiment [4] it was 6 nM.
Turning to `Cc1ncnc2c1ccn2[C@@H]1O[C@H]([C@H](O)c2ccc3c(c2)CCC3)[C@@H](O)[C@H]1O` [Example 44, (2R,3S,4R,5R)-2-((R)-(2,3-dihydro-1H-inden-5-yl)(hydroxy)methyl)-5-(4-methyl-7H-pyrrolo[2,3-d]pyrimidin-7-yl)tetrahydrofuran-3,4-diol], the half-inhibitory concentration (IC50) was found to be 113 nM in experiment [1], 1160 nM in experiment [2] and 23.7 nM in experiment [3].
Consider `Nc1ncnc2c1ccn2[C@@H]1O[C@H]([C@H](O)c2ccc3c(c2)CCC3)[C@@H](O)[C@H]1O` [Example 45, (2R,3R,4S,5R)-2-(4-amino-7H-pyrrolo[2,3-d]pyrimidin-7-yl)-5-((R)-(2,3-dihydro-1H-inden-5-yl)(hydroxy)methyl)tetrahydrofuran-3,4-diol], for which the values for the IC50 in experiment [1], in experiment [2] and in experiment [3] were 54 nM, 547 nM and 6.6 nM, respectively.
In the case of `COCCc1ncnc2c1ccn2[C@@H]1O[C@H]([C@H](O)c2ccc3c(c2)CC3)[C@@H](O)[C@H]1O` [Example 48, (2R,3S,4R,5R)-2-((R)-bicyclo[4.2.0]octa-1(6),2,4-trien-3-yl(hydroxy)methyl)-5-(4-(2-methoxyethyl)-7H-pyrrolo[2,3-d]pyrimidin-7-yl)tetrahydrofuran-3,4-diol], the half-inhibitory concentration (IC50) in experiment [1] worked out at 758 nM; in experiment [2], 10000 nM; in experiment [3], 74 nM; in experiment [5] it was 337 nM.
As to `O[C@@H]1[C@H](O)[C@@H]([C@H](O)c2ccc3c(c2)CC3)O[C@H]1n1ccc2c(CF)ncnc21` [Example 49, (2R,3S,4R,5R)-2-((R)-bicyclo[4.2.0]octa-1(6),2,4-trien-3-yl(hydroxy)methyl)-5-(4-(fluoromethyl)-7H-pyrrolo[2,3-d]pyrimidin-7-yl)tetrahydrofuran-3,4-diol], the half-inhibitory concentration (IC50) came to 625 nM in experiment [1], 10000 nM in experiment [2], 78 nM in experiment [3] and 375 nM in experiment [5].
